Data reported in patent publication US20230226230A1, “THIOPURINE-BASED COMPOUND, COMPOSITION, METHOD OF PREPARATION AND APPLICATIONS” (SEECURE TAIWAN CO., LTD., priority 2021, published 2023).
“Also recorded” adds a separate entry of the source.

Columns and labels:
[1] = tested on: various human lymphoma cells (mantle cell lines); test: In vitro MTT cytotoxicity assay, human lymphoma cells; format: cell-based
Excerpt: (§1) Effect of Compound SC-06-K analogues were selected to test their feasibility against representative mantle cell lines and diffuse large B-cell lymphoma (DLBCL) cell lines using cell viability assays.

[2] = tested on: human diffuse large B-cell lymphoma cells; test: In vitro MTT cytotoxicity assay, DLBCL cells; format: cell-based; conditions: various human diffuse large B-cell lymphoma cells
Excerpt: as §1

MDA-MB-231 tumors = test: Imaging of nude mice bearing breast tumors, MDA-MB-231 tumor; conditions: MDA-MB-231, at 0.5 hrs
MCF-7 tumors = test: Imaging of nude mice bearing breast tumors, MCF-7 tumor; conditions: MCF-7, at 0.5 hrs

SMILES	MTT cytotoxicity [1]	MTT cytotoxicity [2]	Tumor/muscle count density ratios (MDA-MB-231 tumors)	Tumor/muscle count density ratios (MCF-7 tumors)
Cn1cnc([N+](=O)[O-])c1Sc1ncnc2c1ncn2CC(O)CN1CCNCCNCCNCC1 (stereo not shown) [SC-06-K-1, Cyclen-Hydroxypropyl-Azathioprine Conjugate]	inhibited cancer cells in dose-dependent manners; also recorded: inhibited cancer cells in a dose-dependent manner	inhibited various human diffuse large B-cell lymphoma cells in a dose-dependent manner; also recorded: inhibited cancer cells in a dose-dependent manner		
OC[C@H]1OC(O)[C@H]([18F])[C@@H](O)[C@@H]1O (stereo partly shown) [^18F-FDG, 2′-fluorodeoxyglucose]			0.25	0.28
